# Reference: patent publication US5571804A, “Cephalosporin antibiotics” (priority 1993, dated 1996)
# How the values were obtained:
# [1] = system: Staphylococcus aureus 6538P; assay: MIC, two-fold agar dilution; type: cell-based; details: Muller-Hinton agar, 37° C., 20 hours
# [2] = system: Staphylococcus aureus giorgio; assay: MIC, two-fold agar dilution; type: cell-based; details: Muller-Hinton agar, 37° C., 20 hours
# [3] = system: Staphylococcus aureus 77; assay: MIC, two-fold agar dilution; type: cell-based; details: Muller-Hinton agar, 37° C., 20 hours
# [4] = system: Staphylococcus aureus 241; assay: MIC, two-fold agar dilution; type: cell-based; details: Muller-Hinton agar, 37° C., 20 hours
# [5] = system: Staphylococcus epidermidis 887E; assay: MIC, two-fold agar dilution; type: cell-based; details: Muller-Hinton agar, 37° C., 20 hours
# [6] = system: Streptococcus laecalis 29212A; assay: MIC, two-fold agar dilution; type: cell-based; details: Muller-Hinton agar, 37° C., 20 hours
# [7] = system: E. coli 10536; assay: MIC, two-fold agar dilution; type: cell-based; details: Muller-Hinton agar, 37° C., 20 hours
# [8] = system: E. coli 3190Y; assay: MIC, two-fold agar dilution; type: cell-based; details: Muller-Hinton agar, 37° C., 20 hours
# [9] = system: E. coli 851E; assay: MIC, two-fold agar dilution; type: cell-based; details: Muller-Hinton agar, 37° C., 20 hours
# [10] = system: E. coli TEM1 1193E; assay: MIC, two-fold agar dilution; type: cell-based; details: Muller-Hinton agar, 37° C., 20 hours
# [11] = system: E. coli TEM3 3455E; assay: MIC, two-fold agar dilution; type: cell-based; details: Muller-Hinton agar, 37° C., 20 hours
# [12] = system: E. coli TEM5 3739E; assay: MIC, two-fold agar dilution; type: cell-based; details: Muller-Hinton agar, 37° C., 20 hours
# [13] = system: E. coli TEM7 3457E; assay: MIC, two-fold agar dilution; type: cell-based; details: Muller-Hinton agar, 37° C., 20 hours
# [14] = system: E. coli TEM9 2639E; assay: MIC, two-fold agar dilution; type: cell-based; details: Muller-Hinton agar, 37° C., 20 hours
# [15] = system: Pseudomonas aeruginosa 1912E; assay: MIC, two-fold agar dilution; type: cell-based; details: Muller-Hinton agar, 37° C., 20 hours
# [16] = system: Pseudomonas aeruginosa 10145; assay: MIC, two-fold agar dilution; type: cell-based; details: Muller-Hinton agar, 37° C., 20 hours
# [17] = system: Pseudomonas aeruginosa 6065; assay: MIC, two-fold agar dilution; type: cell-based; details: Muller-Hinton agar, 37° C., 20 hours
# [18] = system: Acinetobacter calcoaceticus 15473A; assay: MIC, two-fold agar dilution; type: cell-based; details: Muller-Hinton agar, 37° C., 20 hours
# [19] = system: Citrobacter diversus 2046E; assay: MIC, two-fold agar dilution; type: cell-based; details: Muller-Hinton agar, 37° C., 20 hours
# [20] = system: Enterobacter cloacae IND + VE 1194E; assay: MIC, two-fold agar dilution; type: cell-based; details: Muller-Hinton agar, 37° C., 20 hours
# [21] = system: Enterobacter cloacae P99; assay: MIC, two-fold agar dilution; type: cell-based; details: Muller-Hinton agar, 37° C., 20 hours
# [22] = system: Klebsiella aerogenes SHV-1 1976E; assay: MIC, two-fold agar dilution; type: cell-based; details: Muller-Hinton agar, 37° C., 20 hours
# [23] = system: Klebsiella aerogenes K1 + 1082E; assay: MIC, two-fold agar dilution; type: cell-based; details: Muller-Hinton agar, 37° C., 20 hours
# [24] = system: Proteus vularis 6059A; assay: MIC, two-fold agar dilution; type: cell-based; details: Muller-Hinton agar, 37° C., 20 hours
# [25] = system: Serratia marcescens 1826E; assay: MIC, two-fold agar dilution; type: cell-based; details: Muller-Hinton agar, 37° C., 20 hours
# [26] = system: Salmonella typhimurium 14028A; assay: MIC, two-fold agar dilution; type: cell-based; details: Muller-Hinton agar, 37° C., 20 hours
# [27] = pharmakinetic variables in SD rats; details: rat, in vivo, iv, 20 mg/kg
# Protocol: The pharmakinetic variables were determined using SD rats (.male.) of a body weight of 230±10g as follows. The "S" compound of each of the Examples was injected to femoral vein of 4-5 rats by 20mg/Kg and then blood was collected from femoral artery in 1, 2.5, 5, 10, 20, 40, 60 and 120 min.
SMILES,minimal inhibitory concentration (MIC) [1],minimal inhibitory concentration (MIC) [2],minimal inhibitory concentration (MIC) [3],minimal inhibitory concentration (MIC) [4],minimal inhibitory concentration (MIC) [5],minimal inhibitory concentration (MIC) [6],minimal inhibitory concentration (MIC) [7],minimal inhibitory concentration (MIC) [8],minimal inhibitory concentration (MIC) [9],minimal inhibitory concentration (MIC) [10],minimal inhibitory concentration (MIC) [11],minimal inhibitory concentration (MIC) [12],minimal inhibitory concentration (MIC) [13],minimal inhibitory concentration (MIC) [14],minimal inhibitory concentration (MIC) [15],minimal inhibitory concentration (MIC) [16],minimal inhibitory concentration (MIC) [17],minimal inhibitory concentration (MIC) [18],minimal inhibitory concentration (MIC) [19],minimal inhibitory concentration (MIC) [20],also measured
"Nc1cc(N)nc(SCC2=C(C(=O)O)N3C(=O)[C@@H](NC(=O)/C(=N\O[C@H](C(=O)O)c4ccc(O)c(O)c4)c4csc(N)n4)[C@H]3SC2)n1 [Compound I-1S, 7-[(Z)-2-(aminothiazol-4-yl)-2-(α-carboxy-3,4-dihydroxybenzyloxyimino)acetamido]-3-(4,6-diamino-pyrimidine-2-yl) thiomethyl-3-cephem-4-carboxylate]",2,1,8,64,32,4,≤ 0.008,0.031,0.031,0.031,0.016,0.063,≤ 0.008,0.25,0.25,0.13,0.25,0.13,0.063,2,minimal inhibitory concentration (MIC) [21]: 16; minimal inhibitory concentration (MIC) [22]: 0.13; minimal inhibitory concentration (MIC) [23]: 0.031; minimal inhibitory concentration (MIC) [24]: 0.13; minimal inhibitory concentration (MIC) [25]: 0.25; minimal inhibitory concentration (MIC) [26]: 0.016; AUC at 2 h [27]: 61600 ng·h/mL; half-life [27]: 62 min
"Cc1c(N)nc(SCC2=C(C(=O)O)N3C(=O)[C@@H](NC(=O)/C(=N\O[C@H](C(=O)O)c4ccc(O)c(O)c4)c4csc(N)n4)[C@H]3SC2)nc1N [Compound I-2S, 7-[(Z)-2-(aminothiazol-4-yl)-2-(α-carboxyl-3,4-dihydroxybenzyloxyimino)acetamido]-3-(4,6-diamino-5-methylpyrimidine-2-yl)thiomethyl-3-cephem-4-carboxylate]",1,1,4,64,16,4,≤ 0.008,0.063,0.031,0.031,0.016,0.063,≤ 0.008,0.25,0.5,0.13,0.25,0.25,0.016,4,minimal inhibitory concentration (MIC) [21]: 8; minimal inhibitory concentration (MIC) [22]: 0.13; minimal inhibitory concentration (MIC) [23]: 0.031; minimal inhibitory concentration (MIC) [24]: 0.13; minimal inhibitory concentration (MIC) [25]: 0.25; minimal inhibitory concentration (MIC) [26]: 0.016; AUC at 2 h [27]: 54100 ng·h/mL; half-life [27]: 55 min
"Nc1ccnc(SCC2=C(C(=O)O)N3C(=O)[C@@H](NC(=O)/C(=N\O[C@H](C(=O)O)c4ccc(O)c(O)c4)c4csc(N)n4)[C@H]3SC2)n1 [Compound I-3S, 7-[(Z)-2-(aminothiazol-4-yl)-2-(α-carboxyl-3,4-dihydroxybenzyloxyimino)acetamido]-3-(4-amino-pyrimidine-2-yl) thiomethyl-3-cephem-4-carboxylate]",2,1,4,128,32,4,≤ 0.008,0.031,0.063,0.031,0.016,0.063,0.063,0.25,0.25,0.13,0.5,0.13,0.031,2,minimal inhibitory concentration (MIC) [21]: 8; minimal inhibitory concentration (MIC) [22]: 0.13; minimal inhibitory concentration (MIC) [23]: 0.031; minimal inhibitory concentration (MIC) [24]: 0.13; minimal inhibitory concentration (MIC) [25]: 0.25; minimal inhibitory concentration (MIC) [26]: 0.016; AUC at 2 h [27]: 57900 ng·h/mL; half-life [27]: 58 min
"Nc1cc(SCC2=C(C(=O)O)N3C(=O)[C@@H](NC(=O)/C(=N\O[C@@H](C(=O)O)c4ccc(O)c(O)c4)c4csc(N)n4)[C@H]3SC2)ncn1 [Compound I-7R, 7[-(Z)-2-(aminothiazol-4-yl)-2-(α-carboxy-3,4-dihydroxybenzyloxyimino)acetamido]-3-(6-amino-pyrimidine-4-yl)thiomethyl-3cephem-4-carboxylate]",2,2,8,128,32,4,0.016,0.063,0.13,0.13,0.031,0.063,0.031,0.25,0.25,2,4,0.25,0.13,4,minimal inhibitory concentration (MIC) [21]: 8; minimal inhibitory concentration (MIC) [22]: 0.25; minimal inhibitory concentration (MIC) [23]: 0.25; minimal inhibitory concentration (MIC) [24]: 0.25; minimal inhibitory concentration (MIC) [25]: 0.5; minimal inhibitory concentration (MIC) [26]: 0.13
